Experimental data as given in patent US20210309666A1, “SMALL MOLECULE MDM2 PROTEIN DEGRADERS” (THE REGENTS OF THE UNIVERSITY OF MICHIGAN, priority 2018, published 2021).

The compounds below were run on RS4;11 cells (assay: Cell growth inhibition, 4-day proliferation assay (WST-8)). Settings: Homo sapiens, 96 h; RS4;11 cells, 4 days, WST-8; read-out: RS4; 11 Cells IC50.
Assay type: cell-based
Protocol: The effect of representative Compounds of the Disclosure on cell viability was determined in a 4-day proliferation assay. Cells were maintained in the appropriate culture medium with 10% FBS at 37° C. and an atmosphere of 5% CO2. Also, the effect of a MDM2 inhibitor (Cpd. A; see Compound Example No. 22 of U.S. Pat. No. 8,629,141) and a known MDM2 degrader (Cpd. D, see Cpd. No. 175 of WO 2017/0176957) on cell viability in various cell lines is also included in Table 5. Cpd. […] A and D. The structure of Cpd. A is:
Cells were seeded in 96-well flat bottom (Corning COSTAR, Corning, N.Y., cat #3595) at a density of 2,000-3,000 cells/well in 100 μL of culture medium. Compounds were serially diluted in the appropriate medium, and 100 μL of the diluted compounds were added to the appropriate wells of the cell plate. After the addition of compounds, the cells were incubated at 37° C. in an atmosphere of 5% CO2 for 4 days. Cell viability was determined using the WST (2-(2-methoxy-4-nitrophenyl)-3-(4-nitrophenyl)-5-(2,4-disulfophenyl)-2H-tetrazolium, monosodium salt) Cell Counting-8 Kit (Dojindo Molecular Technologies, Inc., Rockville, Md.) according to the manufacturers' instructions.
WST-8 reagent was added to each well at a final concentration of 10% (v/v), and then the plates were incubated at 37° C. for 1-2 hours for color development. The absorbance was measured at 450 nm using a SPECTRAmax PLUS plate reader (Molecular Devices, Sunnyvale, Calif.). The readings were normalized to the DMSO-treated cells and the half maximal inhibitory concentration (IC50) was calculated by nonlinear regression (four parameters sigmoid fitted with variable slope, least squares fit, and no constraint) analysis using the GraphPad Prism 5 software (GraphPad Software, La Jolla, Calif.).

**Q.** Which IC50 does the source give for `CC1(C#Cc2cccc3c2CN(C2CCC(=O)NC2=O)C3=O)CCN(C(=O)C23CCC(NC(=O)[C@@H]4NC5(CCCCC5)[C@@]5(C(=O)Nc6cc(Cl)ccc65)[C@H]4c4cccc(Cl)c4F)(CC2)CC3)CC1` (stereo partly drawn) [Cpd. No. 31, (3′R,4′S,5′R)-6″-chloro-4′-(3-chloro-2-fluorophenyl)-N-(4-(4-((2-(2,6-dioxopiperidin-3-yl)-1-oxoisoindolin-4-yl)ethynyl)-4-methylpiperidine-1-carbonyl)bicyclo[2.2.2]octan-1-yl)-2″-oxodispiro[cyclohexane-1,2′-pyrrolidine-3′,3″-indoline]-5′-carboxamide] here?
**A.** The IC50 was 2.9 nM.

**Q.** `O=C1CCC(N2Cc3c(C#CC4CN(C(=O)[C@H]5CC[C@H](NC(=O)[C@@H]6NC7(CCCCC7)[C@@]7(C(=O)Nc8cc(Cl)ccc87)[C@H]6c6cccc(Cl)c6F)CC5)C4)cccc3C2=O)C(=O)N1` (stereo partly drawn) [Cpd. No. 32, (3′R,4′S,5′R)-6″-chloro-4′-(3-chloro-2-fluorophenyl)-N-(4-(3-((2-(2,6-dioxopiperidin-3-yl)-1-oxoisoindolin-4-yl)ethynyl)azetidine-1-carbonyl)cyclohexyl)-2″-oxodispiro[cyclohexane-1,2′-pyrrolidine-3′,3″-indoline]-5′-carboxamide] was tested. Which IC50 did it give?
**A.** Its IC50 is 1.3 nM.

**Q.** How did the IC50 turn out when `O=C1CCC(N2Cc3c(C#CC4CN(C(=O)C56CCC(NC(=O)[C@@H]7NC8(CCCCC8)[C@@]8(C(=O)Nc9cc(Cl)ccc98)[C@H]7c7cccc(Cl)c7F)(CC5)CC6)C4)cccc3C2=O)C(=O)N1` (stereo partly drawn) [Cpd. No. 33, (3′R,4′S,5′R)-6″-chloro-4′-(3-chloro-2-fluorophenyl)-N-(4-(3-((2-(2,6-dioxopiperidin-3-yl)-1-oxoisoindolin-4-yl)ethynyl)azetidine-1-carbonyl)bicyclo[2.2.2]octan-1-yl)-2″-oxodispiro [cyclohexane-1,2′-pyrrolidine-3′,3″-indoline]-5′-carboxamide] was run?
**A.** Its IC50 is 1.2 nM.

**Q.** Which IC50 does the source give for `CC(C)[C@@H](CS(=O)(=O)C(C)C)N1C(=O)[C@@](C)(CC(=O)NCCCC#Cc2cccc3c2CN(C2CCC(=O)NC2=O)C3=O)C[C@H](c2cccc(Cl)c2)[C@H]1c1ccc(Cl)cc1` (stereo partly drawn) [Cpd. No. 37, 2-((3R,5R,6S)-5-(3-chlorophenyl)-6-(4-chlorophenyl)-1-((S)-1-(isopropylsulfonyl)-3-methylbutan-2-yl)-3-methyl-2-oxopiperidin-3-yl)-N-(5-(2-(2,6-dioxopiperidin-3-yl)-1-oxoisoindolin-4-yl)pent-4-yn-1-yl)acetamide] here?
**A.** The IC50 was > 100 nM.

**Q.** `CC(C)(C)C[C@@H]1N[C@@H](C(=O)NC23CCC(C(=O)N4CCC(C#Cc5cccc6c5CN(C5CCC(=O)NC5=O)C6=O)CC4)(CC2)CC3)[C@H](c2cccc(Cl)c2F)[C@@]1(C#N)c1ccc(Cl)cc1F` (some centres unmarked) [Cpd. No. 38] was tested. Which IC50 did it give?
**A.** The IC50 was 56 nM.
